Experimental findings from patent US8980934B2, “Kinase inhibitors and method of treating cancer with same” (University Health Network, priority 2012, dated 2015) are described below.

Holding throughout (format): cell-based
For test [1], the system named is colon 12 tumor initiating cells. Kind of test: Colon tumor-initiating cell growth inhibition, Alamar Blue assay. The note with it: 216 h, colon TICs, 9 days culture, read-out: Tumor Initiating Cell Line GI50 Range colon 12. From the text:
(§1) Non-tissue or tissure cultured treated T-75 flask and 96-well plates were purchased from VWR. Vitamin B-27 supplement, MEM NEAA (minimum essential medium non essential amino acids), sodium pyruvate, L-glutamine, N2 supplement, penicillin-streptomycin and fungizone/amphotericin B were obtained from Invitrogen. Lipid mixture, heparin and EGF were purchased from Sigma; bFGF from BD Biosciences. Colon tumor initiating cells (TICs) were routinely maintained using non-tissue cultured treated T-75 flasks in DMEM:F12 medium containing 0.2XB-27 supplement, 4 ug/ml heparin, 1XMEM NEAA, 1Xsodium pyruvate, 1 mM glutamine, 10 pg/ul bFGF, 20 pg/ul EGF, 1×N2 supplement, lipid mixture, penicillin-streptomycin and fungizone/amphotericin B. Ovarian TICs were routinely maintained using tissue cultured treated T-75 flasks in DMEM:F12 medium containing 1XB-27 supplement, 4 ug/ml heparin, 20 pg/ul bFGF, 20 pg/ul EGF and penicillin-streptomycin.
(§2) Compounds described herein were dissolved in DMSO and further diluted in cell culture medium for GI50 determination. Colon TICs were trypsinized and seeded into non-tissue cultured treated 96-well plates with 4,000 cells/well. After 24 h, compound was added into the cell culture at different concentrations, and the final concentration of DMSO was adjusted to 0.1%. Cells were then cultured at 37° C. for 9 days. Ovarian TICs were trypsinized and seeded into tissue cultured treated 96-well plates with 1,000 cells/well. After 24 h, compound was added into the cell culture at different concentrations, and the final concentration of DMSO was adjusted to 0.1%. Cells were then cultured at 37° C. for 6 days. Cell viability was assessed by Alamar Blue assay: 10 ul of Alamar Blue was added into each well. After 4 hours incubation at 37° C., fluorescence was recorded at excitation 544 and emission 590. GI50 (Growth inhibition) was calculated using GraphPad Prism 4.0 software. Cell growth inhibition data for compounds described herein is tabulated below (Table 2). The GI50 ranges are indicated as “A,” and “B”, for values less than or equal to 0.1 μM: those greater than 0.1 μM and less than or equal to 0.5 μM, respectively.
For orientation: The colour change of resazurin is a common sign of viable cells or microbes.

Test [2] relates to HCT116 colon cancer cells. Nature of the test: Cancer cell growth inhibition, Sulforhodamine B assay. The note with it: Homo sapiens, HCT-116, 120 h; HCT116, 5 days culture, SRB; read-out: Cancer Cell Line GI50 Range HCT116. Here is the method:
(§3) Breast cancer cells (MDA-MB-231), colon cancer cells (HCT116) and ovarian cancer cells (PA-1) were seeded (1000 to 4000 in 80 μl per well depending on the cell growth rate) into 96 well plates 24 hours before compound overlay. Compounds were prepared as 10 mM stock solutions in 100% DMSO which were diluted with DMEM (Dulbecco's Modified Eagle's Medium) cell growth Medium (Invitrogen, Burlington, ON, Canada) containing 10% FBS (Fetal Bovine Serum) to concentrations ranging from 50 nM to 250 μM. Aliquots (20 μl) from each concentration were overlaid to 80 μl of the pre-seeded cells in the 96 well plates to make final concentrations of 10 nM to 50 μM. The cells were cultured for 5 days before the Sulforhodamine B assay (SRB) was performed to determine the compound's cell growth inhibition activity.
(§4) Sulforhodamine B (purchased from Sigma, Oakville, ON, Canada) is a water-soluble dye that binds to the basic amino acids of the cellular proteins. Thus, colorimetric measurement of the bound dye provides an estimate of the total protein mass that is related to the cell number. the cells are fixed in situ by gently aspirating off the culture media and adding 50 μl ice cold 10% Trichloroacetic Acid (TCA) per well and incubate at 4° C. for 30-60 min. The plates are washed with H2O five times and allowed to air dry for 5 min. Addition of 50 μl 0.4% (w/v) SRB solution in 1% (v/v) acetic acid to each well and incubatation for 30 min at RT completes the staining reaction. Following staining, plates are washed four times with 1% acetic acid to remove unbound dye and then allowed to air dry for 5 min. The stain is solubilized with 100 μl of 10 mM Tris pH 10.5 per well. Absorbance is read at 570 nm.
(§5) The percentage (%) of relative growth inhibition was calculated by comparing to DMSO treated only cells (100%). GI50's were determined for compounds with cytotoxic activity. The GI50 was calculated using GraphPad PRISM software (GraphPad Software, Inc., San Diego, Calif., USA). GI50 (growth inhibition) is the compound concentration that causes 50% inhibition of cell growth.
(§6) In Table 1 below, GI50 value ranges for several compound examples against breast cancer cell lines (MDA-MB-231), colon cancer cell lines (HCT116) and ovarian cancer cell lines (PA-1) are given. […] The GI50 ranges are indicated as “A,” “B,” and “C,” for values less than or equal to 0.1 μM; those greater than 0.1 μM and less than or equal to 0.5 μM; and those greater than 0.5 μM, respectively.
On the technique in general: In SRB staining, fixed cells bind dye roughly in proportion to their protein.

Test [3] deals with PA-1 ovarian cancer cells. The description is as above. The following applies: 120 h; PA-1, 5 days culture, SRB; read-out: Cancer Cell Line GI50 Range PA-1. As to the method: as §3, §4, §5, §6
Test [4] relates to MDA-MB-231 breast cancer cells. The description is as above. The note with it: Homo sapiens, 120 h; MDA-MB-231, 5 days culture, SRB; read-out: Cancer Cell Line GI50 Range MDA-MB-231. As to the method:
as §3, §4, §5, §6

Test [5] relates to ovarian 2393A tumor initiating cells. Kind of test: Ovarian tumor-initiating cell growth inhibition, Alamar Blue assay. The note with it: 144 h, ovarian TICs, 6 days culture, read-out: Tumor Initiating Cell Line GI50 Range ovarian 2393A.
Excerpt: as §1, §2

Each structure is given as a SMILES string.

Regarding `O=C(N[C@H](c1ccccn1)C1CCCC1)c1ccc2[nH]nc(-c3ccc(N4CC5(CCO5)C4)cc3)c2c1` [Example A20, (S)-3-(4-(1-oxa-6-azaspiro[3.3]heptan-6-yl)phenyl)-N-(cyclopentyl(pyridin-2-yl)methyl)-1H-indazole-5-carboxamide], the 50% growth inhibitory concentration (GI50) in test [1], in test [2], in test [3], in test [4] and in test [5] was no more than 100 nM in each case.
For the compound `O=C(NC(c1ccccn1)C1CC1)c1ccc2[nH]nc(-c3ccc(N4CCC5(CC4)COC5)cc3)c2c1` (centres unmarked) [Example A15, 3-(4-(2-Oxa-7-azaspiro[3.5]nonan-7-yl)phenyl)-N-(cyclopropyl(pyridin-2-yl)methyl)-1H-indazole-5-carboxamide], the GI50 is 100 to 500 nM in test [1]; no more than 100 nM in test [2]; no more than 100 nM in test [3]; 100 to 500 nM in test [4]; 100 to 500 nM in test [5].
Take `O=C(N[C@H](c1ccccn1)C1CC1)c1ccc2[nH]nc(-c3ccc(N4CC5(COC5)C4)cc3)c2c1` [Example A5, (S)-3-(4-(2-Oxa-6-azaspiro[3.3]heptan-6-yl)phenyl)-N-(cyclopropyl(pyridin-2-yl)methyl)-1H-indazole-5-carboxamide]: the GI50 in test [1] was 100 to 500 nM; in test [2], no more than 100 nM; in test [3], no more than 100 nM; in test [4], no more than 100 nM; in test [5], no more than 100 nM.
With `O=C(N[C@H](c1ccccc1)C1CC1)c1ccc2[nH]nc(-c3ccc(N4CC5(COC5)C4)cc3)c2c1` [Example A10, 3-(4-(2-Oxa-6-azaspiro[3.3]heptan-6-yl)phenyl)-N-((S)-cyclopropyl(phenyl)methyl)-1H-indazole-5-carboxamide], the GI50 is no more than 100 nM in test [1]; no more than 100 nM in test [2]; no more than 100 nM in test [3]; 100 to 500 nM in test [4]; 100 to 500 nM in test [5].
In the case of `CC(C)C(NC(=O)c1ccc2[nH]nc(-c3ccc(N4CC5(COC5)C4)cc3)c2c1)c1ccccc1Cl` (centres unmarked) [Example A11, 3-(4-(2-Oxa-6-azaspiro[3.3]heptan-6-yl)phenyl)-N-(1-(2-chlorophenyl)-2-methylpropyl)-1H-indazole-5-carboxamide], the GI50 in test [1], in test [2], in test [3], in test [4] and in test [5] was no more than 100 nM each time.
With `O=C(N[C@H](c1ccccn1)C1CCCC1)c1ccc2[nH]nc(-c3ccc(N4CC5(CCOCC5)C4)cc3)c2c1` [Example A19, (S)-3-(4-(7-Oxa-2-azaspiro[3.5]nonan-2-yl)phenyl)-N-(cyclopentyl(pyridin-2-yl)methyl)-1H-indazole-5-carboxamide], the GI50 was no more than 100 nM in test [1]; no more than 100 nM in test [2]; no more than 100 nM in test [3]; no more than 100 nM in test [4]; 100 to 500 nM in test [5].
Consider `O=C(N[C@H](c1ccccn1)C1CCCC1)c1ccc2[nH]nc(-c3ccc(N4CC5(COC5)C4)cc3)c2c1` [Example A2, (S)-3-(4-(2-oxa-6-azaspiro[3.3]heptan-6-yl)phenyl)-N-(cyclopentyl(pyridin-2-yl)methyl)-1H-indazole-5-carboxamide], for which the concentration for 50% growth inhibition (GI50) in test [1], in test [2], in test [3], in test [4] and in test [5] was no more than 100 nM throughout.
In the case of `O=C(Nc1ccc2[nH]nc(-c3ccc(N4CC5(COC5)C4)cc3)c2c1)C(c1ccsc1)N1CCCC1` (centres unmarked) [Example A1, N-(3-(4-(2-oxa-6-azaspiro[3.3]heptan-6-yl)phenyl)-1H-indazol-5-yl)-2-(pyrrolidin-1-yl)-2-(thiophen-3-yl)acetamide], the concentration for 50% growth inhibition (GI50) in test [1], in test [2], in test [3], in test [4] and in test [5] was no more than 100 nM throughout.
Turning to `O=C(N[C@@H](c1ccccn1)C1CCCC1)c1ccc2[nH]nc(-c3ccc(N4CC5(COC5)C4)cc3)c2c1` [Example A8, (R)-3-(4-(2-Oxa-6-azaspiro[3.3]heptan-6-yl)phenyl)-N-(cyclopentyl(pyridin-2-yl)methyl)-1H-indazole-5-carboxamide], the GI50 in test [1], in test [2], in test [3], in test [4] and in test [5] was no more than 100 nM throughout.
Take `O=C(NC(c1ccccn1)C1CC1)c1ccc2[nH]nc(-c3ccc(N4CC5(COC5)C4)cc3)c2c1` (centres unmarked) [Example A4, 3-(4-(2-Oxa-6-azaspiro[3.3]heptan-6-yl)phenyl)-N-(cyclopropyl(pyridin-2-yl)methyl)-1H-indazole-5-carboxamide]: the GI50 is 100 to 500 nM in test [1]; no more than 100 nM in test [2]; no more than 100 nM in test [3]; no more than 100 nM in test [4]; no more than 100 nM in test [5].
Regarding `CC(C)[C@H](NC(=O)c1ccc2[nH]nc(-c3ccc(N4CC5(CC(O)C5)C4)cc3)c2c1)c1ccccc1Cl` [Example A32, (S)-N-(1-(2-Chlorophenyl)-2-methylpropyl)-3-(4-(6-hydroxy-2-azaspiro[3.3]heptan-2-yl)phenyl)-1H-indazole-5-carboxamide], the concentration for 50% growth inhibition (GI50) in test [1], in test [2], in test [3], in test [4] and in test [5] was no more than 100 nM throughout.
Take `CC(C)[C@H](NC(=O)c1ccc2[nH]nc(-c3ccc(N4CC5(CCO5)C4)cc3)c2c1)c1ccccc1Cl` [Example A23, (S)-3-(4-(1-Oxa-6-azaspiro[3.3]heptan-6-yl)phenyl)-N-(1-(2-chlorophenyl)-2-methylpropyl)-1H-indazole-5-carboxamide]: the GI50 in test [1], in test [2], in test [3], in test [4] and in test [5] was no more than 100 nM throughout.
`Cc1ccccc1C(NC(=O)c1ccc2[nH]nc(-c3ccc(N4CC5(COC5)C4)cc3)c2c1)C1CC1` (centres unmarked) [Example A3, 3-(4-(2-Oxa-6-azaspiro[3.3]heptan-6-yl)phenyl)-N-(cyclopropyl(o-tolyl)methyl)-1H-indazole-5-carboxamide]: the concentration for 50% growth inhibition (GI50) in test [1] was no more than 100 nM; in test [2] it was no more than 100 nM; in test [3], no more than 100 nM; in test [4] it was 100 to 500 nM; in test [5] it was 100 to 500 nM.

The GI50 is the concentration at which growth is held to half of that of the control.
